From paper PMC11613437, “Prioritization of Eleven-Nineteen-Leukemia Inhibitors as Orally Available Drug Candidates for Acute Myeloid Leukemia” (Journal of Medicinal Chemistry, 2024)
Read-outs that look alike come from different tables or passages of the source. Values belong to the molecule of their own block, whether it stands above or below them.

What was measured:
[1] = molecular target: T1, NLuc-ENL YEATS fusion protein (Homo sapiens, UniProt Q03111); assay: NanoBRET apparent tracer affinity; type: cell-based; conditions: HEK293T cells
T1 construct: DNA encoding the ENL YEATS domain (aa 1–148) was cloned into an NLuc containing plasmid; expressed in transfected cells
T1 sequence (Q03111 1-148): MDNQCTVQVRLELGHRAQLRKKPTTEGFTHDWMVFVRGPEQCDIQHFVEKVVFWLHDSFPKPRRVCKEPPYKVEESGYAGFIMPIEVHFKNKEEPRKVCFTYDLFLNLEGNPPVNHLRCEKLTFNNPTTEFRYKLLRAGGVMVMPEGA
Experimental: (§1) Approximately 1.8 × 10^4 HEK293T cells (100 μL) stably expressing NLuc-ENL YEATS were seeded into a white nonbinding 96-well assay plate and incubated overnight at 37 °C in a humidified 5% CO2 atmosphere. After removal of the medium, the cells were added with a tracer (with or without excess of unlabeled compound) in the Opti-MEM with 0.1% DMSO. After incubation at 37 °C for 2 h the assay plate was equilibrated at room temperature for 15 min. For BRET detection, the NanoGlo Substrate and the extracellular NanoLuc inhibitor (Promega, N2160) were diluted with Opti-MEM as described in protocol to afford detection solution. 50 μL of the detection solution was added per well and the plate was incubated for 3 min at room temperature. The donor emission was measured at 450 nm and the acceptor emission at 610 nm using a BioTek SYNERGY neo2 multimode reader. The BRET ratio was calculated according to the following formula: BRET ratio = [(acceptorsample/donorsample) – (acceptorno-tracer control/donorno-tracer control)] × 1000.

[2] = molecular target: T2, ENL YEATS domain (Homo sapiens, UniProt Q03111); assay: Biolayer interferometry (BLI); type: binding; conditions: biotinylated ENL YEATS on SSA biosensors, 1:1 model
T2 construct: Biotinylated-ENL YEATS was immobilized onto SSA biosensors; biotin (biotinylated)
T2 sequence (Q03111 1-138 limits assumed): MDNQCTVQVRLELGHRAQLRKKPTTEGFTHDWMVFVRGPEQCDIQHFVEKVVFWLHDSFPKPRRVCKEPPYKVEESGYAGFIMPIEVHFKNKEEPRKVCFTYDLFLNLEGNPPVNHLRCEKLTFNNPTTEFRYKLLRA
Experimental: Superstreptavidin biosensors were first incubated in an assay buffer (20 mM Tris, pH 7.8, 300 mM NaCl, 0.05% Tween 20, 0.1% DMSO) for 15 min. Sensors were coated with 40–60 μg/mL of biotinylated ENL for 15 min at room temperature. Inhibitors were serially diluted across a 96-well plate in a volume of 200 μL. Association of samples to either ENL- or uncoated reference sensors was measured over 300 s and dissociation over 300 s with baseline measurements (buffer only) for 300 s. All assays were run with continuous 1000 rpm shaking. Data were analyzed using the OctetRED data analysis software with reference subtraction in which reference uncoated sensors and reference samples were subtracted. Then, global kinetic fit was performed for all sonogram curves with a 1:1 model to get KD values.

[3] = molecular target: T3, ENL YEATS (Homo sapiens, UniProt Q03111); assay: AlphaScreen assay with biotinylated ENL-S1 peptide; conditions: inhibition of ENL YEATS binding to ENL-S1 peptide; mean ± SD, n = 3; read-out: Alpha IC50 (nM) for ENL YEATS
T3 construct: final concentrations of 100 nM His-ENL YEATS, 100 nM Biotin-ENL-S1
T3 sequence (Q03111 1-138 limits assumed): T2 sequence (Q03111 1-138 limits assumed)
Experimental: The AlphaScreen assay was carried out in 384-well plates. Manual assay setup was performed in a 40 μL reaction buffer (50 mM HEPES pH 7.4, 100 mM NaCl, 0.1% bovine serum albumin, and 0.05% CHAPS) with final concentrations of 100 nM His-ENL YEATS, 100 nM Biotin-ENL-S1, and 20 μg/mL of AlphaScreen donor and acceptor beads. The protein, peptide, and compounds were mixed and incubated for 1 h at room temperature and then incubated for 30 min in dark after adding the α beads. AlphaScreen-signals were detected by a multimode microplate reader (BioTeK Synergy Neo2) equipped with an Alpha-laser (PerkinElmer).

[4] = Cell toxicity assay (CCK-8), Jurkat; type: cell-based; conditions: human, Jurkat cells; 8 day treatment, n = 3; read-out: CC50 Jurkat (Cellular IC50, 8-days incubation)
Experimental: (§2) Approximately 1 × 10^4 JURKAT, MOLM-13, MV4-11 and HEK293T cells in RPMI 1640 (no phenol red) (100 μL) were added to a 96-well plate and treated with DMSO or a compound at indicated concentrations for 72 h or 8 days. Cell viability was measured using the CCK-8 kit (Abcam, ab228554) according to the manufacturer’s instructions.

[5] = Log D at pH 7.4 (chromatographic procedure); type: physicochemical; conditions: n-octanol / aqueous buffer pH 7.4, pH 7.4
Experimental: Log D at 7.4, which is a partition coefficient between n-octanol and aqueous buffer pH 7.4 of the compounds was measured on the chromatographic procedure whose condition was developed based on a published method.[35]

[6] = In vitro metabolic stability assay in HLM; type: in vitro ADME, human
Experimental: At 0, 5, 15, 30, 45, and 60 min, 200 μL acetonitrile (with the internal standard diclofenac as 10 μg/mL) was added to terminate the reaction, the remaining compound was analyzed by HPLC-MS/MS.

[7] = molecular target: T4, NLuc-ENL YEATS (Homo sapiens, UniProt Q03111); assay: ENL-NanoBRET inhibitor competitive assay; type: cell-based; conditions: HEK293T cells stably expressing NLuc-ENL YEATS, 1 μM Tracer 2, 2 h; mean ± SD, n = 3
T4 construct: DNA encoding the ENL YEATS domain (aa 1–148) was cloned into an NLuc containing plasmid; expressed in transfected cells
T4 sequence (Q03111 1-148): T1 sequence (Q03111 1-148)
Experimental: as §1
Sample procedures were followed for cell seeding as described in the previously described tracer affinity assay. After removal of the medium, the cells were added with a tracer in the medium (1.1 μM, 100 μL) and varied concentrations of a test compound in 0.1% DMSO (10 μL). The plate was thoroughly mixed on an orbital shaker for 15 s at 900 rpm. Then the cells were incubated at 37 °C, 5% CO2 for 2 h for BRET ratio detection as described previously.

[8] = Cell toxicity assay (CCK-8), MV4-11; type: cell-based; conditions: human, MV4-11 cells, 8 day treatment, n = 3; read-out: CC50 MV4-11 (Cellular IC50, 8-days incubation)
Experimental: as §2

[9] = tested on: MV4-11 cells; assay: Cell toxicity assay (CCK-8), MV4-11; type: cell-based; conditions: 8 day treatment, n = 3; read-out: CC50 MV4-11 (Cellular IC50, 8-days incubation)
Experimental: as §2

[10] = Cell toxicity assay (CCK-8), HEK293T; type: cell-based; conditions: human, HEK293T cells; 72 h (3-days) treatment, n = 3; read-out: CC50 HEK293T (Cellular IC50, 3-days incubation)
Experimental: as §2

[11] = Cell toxicity assay (CCK-8), MOLM-13; type: cell-based; conditions: human, MOLM-13 cells, 8 day treatment, n = 3; read-out: CC50 MOLM-13 (Cellular IC50, 8-days incubation)
Experimental: as §2

[12] = tested on: MOLM-13 cells; assay: Cell toxicity assay (CCK-8), MOLM-13; type: cell-based; conditions: 8 day treatment, n = 3; read-out: CC50 MOLM-13 (Cellular IC50, 8-days incubation)
Experimental: as §2

[13] = In vitro stability assay in human plasma; type: in vitro ADME; conditions: 37 °C
Experimental: The in vitro stability analysis of a test compound was initiated by the addition of the test compound to 90 μL of prewarmed (37 °C) human plasma with a final concentration of 5 μM. All assays were performed in a plate shaker at 37 °C and conducted in triplicate. At 0, 5, 15, 30, 60, and 120 min, 400 μL acetonitrile (with the internal standard diclofenac as 10 μg/mL) was added to deproteinize the plasma and terminate the reaction, the remaining compound was then analyzed by HPLC-MS/MS.

[14] = molecular target: T2, ENL YEATS domain; conditions: cited from earlier work

affinity profile of tracer for NLuc-ENL YEATS fusion protein ([1]; Figure S5a): limited affinity profile
Molecule: O=C(CCC1=[N+]2C(=Cc3ccc(-c4ccc[nH]4)n3[B-]2(F)F)C=C1)NCCCCSc1ccc(CNC(=O)c2ccc3nncn3c2)cc1 [Tracer 1, N-(4-((4-(3-(5,5-Difluoro-7-(1H-pyrrol-2-yl)-5H-4l4,5l4-dipyrrolo[1,2-c:2′,1′-f][1,3,2]diazaborinin-3-yl)propanamido)butyl)thio)benzyl)-[1,2,4]triazolo[4,3-a]pyridine-6-carboxamide]

EC50 ([1]; nonspecific signal removed with 80 μM unlabeled compound 20): 1.46 µM
Molecule: O=C(CCC1=[N+]2C(=Cc3ccc(-c4ccc[nH]4)n3[B-]2(F)F)C=C1)NCCCC(=O)Nc1cccc(-c2cn3cc(C(=O)NC4CCC4)ccc3n2)c1 [Tracer 2, N-Cyclobutyl-2-(3-(4-(3-(5,5-difluoro-7-(1H-pyrrol-2-yl)-5H-4l4,5l4-dipyrrolo[1,2-c:2′,1′-f][1,3,2]diazaborinin-3yl)propanamido)butanamido)phenyl)imidazo[1,2-a]pyridine-6-carboxamide]

Kd [2]: 645 nM
IC50 [3]: 183 ± 25 nM
chromatographic logD [5]: 0.08
CLint scaled at 1 h ([6]; human, human liver microsomes, pH 7.4, HLM 0.5 mg/mL, NADPH 1 mM, mean ± SD, n = 3, read-out: Liver Microsome CLint, pred): 4.76 mL/min/kg
half-life at 1 h ([6]; human, human liver microsomes, pH 7.4, HLM 0.5 mg/mL, NADPH 1 mM, mean ± SD, n = 3, read-out: Liver Microsome t1/2): 6.15 ± 0.582 h
parent compound remaining after 60 min incubation in HLM ([6]; in the presence of NADPH, 60 min): over 90%
IC50 [7]: 2.02 µM
degradation after 2 h incubation in human plasma [13]: approximately 15%
Plasma % of parent compound remaining (after 2h incubation) ([13]; 5 μM, mean ± SD, n = 3): 83.10 ± 3.49%
Molecule: C[C@H]1CCCN1Cc1cc2cnc(NC(=O)c3ccc4nncn4c3)cc2[nH]1 [YR-D-120, (S)-N-(2-((2-Methylpyrrolidin-1-yl)methyl)-1H-pyrrolo[3,2-c]pyridin-6-yl)-[1,2,4]triazolo [4,3-a]pyridine-6-carboxamide]
IC50 at 8 days [4]: > 64 µM
IC50 at 8 days [8]: < 4 µM
IC50 [9]: 3.28 ± 0.65 µM
IC50 at 72 h [10]: > 64 µM
IC50 at 8 days [11]: < 4 µM
IC50 [12]: 3.61 ± 0.49 µM

Molecule: H3K27cr peptide: commonly used biotinylated H3K27cr peptide for the AlphaScreen assay
Kd [14]: 34 µM
